Where a SMILES comes first, the peptide text is derived from it. [ ]: non-standard residue; d: D form. Met(O) = CS(=O)CC[C@H](N)C(=O)O; pS = N[C@@H](COP(=O)(O)O)C(=O)O
Tests used:
[1] = Stability of the peptides at 37° C. in 10% (v/v) mannitol solution, HPLC peak area of intact peptide; assay type: physicochemical; settings: for 95% of stability (predicted): time to 95% stability from linear equation; for Linear equation of stability (%) versus days: slope: y = stability %, x = days; for Stability (%): 10% mannitol
Experimental: The stability of the peptide SEQ ID NO: 2 in which the serine at position 10 is phosphorylated and the methionine at position 4 is oxidized (P140(MO)), and the peptide SEQ ID NO: 1 in which the serine at position 10 is phosphorylated (P140) was measured at 37° C., in a solution of 10% (v/v) mannitol. For each peptide, 3 concentrations have been tested: 200, 100 and 50 μg/mL.
At the indicated time, the integrity of P140 and P140(MO) peptides was measured in saline by high-performance liquid chromatography from the area of the peak corresponding to the intact peptide.
Stability is measured by using the HPLC peak surface.

[2] = test system: MRL/lpr mice; assay: Survival analysis in MRL/lpr lupus mice; assay type: in vivo, mouse; settings: female MRL/lpr mice, intravenous, from 5 weeks of age; NaCl control = 25 weeks
Experimental: (§1) Statistical tests were performed using GraphPad Prism version 5.0. The two-way ANOVA test was used to analyze statistical significance of proteinuria differences between control and peptide-treated groups of mice. Survival of control and P140 analogue-treated female MRL/lpr mice was analyzed by the Kaplan-Meier method, and the significance of differences was determined by the log-rank test. For the other variables, statistical significance was assessed using the Student's t-test. p values less than 0.05 were considered significant.
It has been determined that this mouse strain carries a mutation in the fas gene. Also, the MRL/lpr is a useful model to study behavioural and cognitive deficits found in autoimmune diseases and the efficacy of immunosuppressive agents [Monneaux et al., 2003, Eur. J. Immunol. 33,287-296].
Five-week-old female MRL/lpr mice received P140 or peptide P140(MO) intravenously as described (Monneaux et al., 2003, Eur. J. Immunol. 33,287-296). All experimental protocols were carried out with the approval of the local Institutional Animal Care and Use Committee (CREMEAS). As control, mice were injected with NaCl.
Twenty mice were used for each peptide or NaCl.

[3] = molecular target: T1, HSC70 protein (Bos taurus, UniProt P19120); assay: BIAcore binding of peptides to immobilized HSC70; set-up: species or system bovine; settings: for Rmax / KA / Kd / kd: 25° C., 1:1 Langmuir model; for Rmax: global fit; for KA / Kd / kd: same value given at each analyte concentration
T1 construct: purchased Stressgen
T1 sequence (P19120 whole entry): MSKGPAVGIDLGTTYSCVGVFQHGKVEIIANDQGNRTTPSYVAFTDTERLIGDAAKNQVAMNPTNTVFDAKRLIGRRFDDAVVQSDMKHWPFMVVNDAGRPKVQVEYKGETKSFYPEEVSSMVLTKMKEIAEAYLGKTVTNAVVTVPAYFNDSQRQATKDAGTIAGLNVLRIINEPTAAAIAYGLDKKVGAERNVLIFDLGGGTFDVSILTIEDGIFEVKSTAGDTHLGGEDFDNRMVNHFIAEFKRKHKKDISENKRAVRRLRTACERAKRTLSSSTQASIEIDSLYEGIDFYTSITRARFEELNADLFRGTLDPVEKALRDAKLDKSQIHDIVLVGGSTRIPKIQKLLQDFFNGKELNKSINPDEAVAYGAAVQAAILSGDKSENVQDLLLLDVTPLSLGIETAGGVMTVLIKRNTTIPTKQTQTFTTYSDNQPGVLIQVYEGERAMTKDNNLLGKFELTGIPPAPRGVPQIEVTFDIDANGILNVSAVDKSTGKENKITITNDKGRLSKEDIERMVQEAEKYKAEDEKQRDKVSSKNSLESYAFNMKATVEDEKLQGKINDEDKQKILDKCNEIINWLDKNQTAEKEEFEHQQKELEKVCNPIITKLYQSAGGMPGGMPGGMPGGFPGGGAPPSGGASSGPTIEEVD
Experimental: BIAcore 3000 system (Biacore AB) was used to evaluate the binding of P140 peptides to HSC70 protein (Page et al., 2009, and 2011). Sensor chip CMS, surfactant P20, amine coupling kit containing N-hydroxysuccinimide (NHS) and N-ethyl-N′-dimethylaminopropyl carbodiimide (EDC), 2-(2-pyridinyldithio)ethaneamine (PDEA) and ethanolamine were from Biacore AB. Biosensor assays were performed with HBS-EP buffer as running buffer (10 mM HEPES, 150 mM NaCl, 3 mM EDTA, 0.005% surfactant P20, pH 7.4). The compounds were diluted in the running buffer. The sensor chip surface was regenerated after each experiment by injecting 10 μL of 10 mM HCl. Recombinant bovine HSC70 (Stressgen) was immobilized on flow cells of a CMS sensor chip through its thiol groups using 35 μL PDEA in 50 mM borate buffer, pH 8.3 on the NHS/EDC-activated matrix. Then, 35 μL of HSC70 (100 μg/mL in formate buffer, pH 4.3) were injected until a response of 13,000 response units (RU) corresponding to 13 ng/mm^2 of HSC70 was immobilized. Twenty μL of a 50 mM cysteine/1 M NaCl solution was used to saturate unoccupied sites on the chip. The direct binding measurement of P140 peptides to HSC70 was carried out at 25° C. with a constant flow rate of 20 μL/min. P140 peptide and analogues were injected in the flux at different concentrations for 3 min, followed by a dissociation phase of 3 min. The kinetic parameters were calculated using the BIAeval 3.1 software on a personal computer. Analysis was performed using the simple 1:1 Langmuir binding model. The specific binding profiles were obtained after subtracting the response signal from the control empty channel and from blank-buffer injection. The fitting to each model was judged by the χ^2 value and randomness of residue distribution compared to the theoretical model.

[4] = test system: MRL/lpr mice; assay: Proteinuria analysis in MRL/lpr mice (Albustix); assay type: in vivo, mouse; settings: fresh urine, Albustix score over time (FIG. 3)
Experimental: as §1
Proteinuria of the above mice was measured in fresh urine using Albustix (Bayer Diagnostics) and was semi-quantitatively estimated according to a […] recommended by the manufacturer (no proteinuria=0; traces=1; 1+=2; 2+=3; 3+=4; 4+=5).

[5] = test system: MRL/lpr mice; assay: Cellularity analysis (peripheral blood leucocytes) in MRL/lpr mice; assay type: in vivo, mouse; settings: 100 μg/100 μL single injection, peripheral blood 5 days after, efficacy at least similar to P140
Experimental: MRL/lpr mice were injected with 100 μg/100 μL of P140 or P140(MO) and cellularity (peripheral blood) was studied 5 days after this unique injection. The count includes all the leucocytes. In view of the low number of tested mice, a non parametric statistical test has been realised Mann-Whitney).

| SMILES | 95% of stability (predicted) ([1]; 50 μg/mL, 37° C.) | Linear equation of stability (%) versus days: slope ([1]; 50 μg/mL, 37° C.) | Stability (%) ([1]; 50 μg/mL, day 0, 37° C.) | Stability (%) ([1]; 50 μg/mL, day 20, 37° C.) | Stability (%) ([1]; 50 μg/mL, day 40, 37° C.) | Stability (%) ([1]; 50 μg/mL, day 100, 37° C.) | Linear equation of stability (%) versus days: slope ([1]; 100 μg/mL, 37° C.) | Stability (%) ([1]; 100 μg/mL, day 0, 37° C.) | Stability (%) ([1]; 100 μg/mL, day 20, 37° C.) | Stability (%) ([1]; 100 μg/mL, day 40, 37° C.) | Stability (%) ([1]; 100 μg/mL, day 100, 37° C.) | 95% of stability (predicted) ([1]; 200 μg/mL, 37° C.) | Stability (%) ([1]; 200 μg/mL, day 0, 37° C.) | Stability (%) ([1]; 200 μg/mL, day 20, 37° C.) | Stability (%) ([1]; 200 μg/mL, day 40, 37° C.) | Stability (%) ([1]; 200 μg/mL, day 100, 37° C.) | Median survival [2] [weeks] | Rmax ([3]; BIAcore) [RU] | KA ([3]; BIAcore) [M⁻¹] | Kd ([3]; BIAcore) [µM] | further results |
| --- | --- | --- | --- | --- | --- | --- | --- | --- | --- | --- | --- | --- | --- | --- | --- | --- | --- | --- | --- | --- | --- |
| CC[C@H](C)[C@H](NC(=O)[C@H](Cc1ccccc1)NC(=O)[C@H](C)NC(=O)[C@H](Cc1ccc(O)cc1)NC(=O)CNC(=O)[C@H](CCCNC(=N)N)NC(=O)[C@@H]1CCCN1C(=O)[C@H](CCCCN)NC(=O)CNC(=O)[C@H](COP(=O)(O)O)NC(=O)[C@H](CCCNC(=N)N)NC(=O)[C@H](CCCCN)NC(=O)[C@H](CO)NC(=O)[C@H](Cc1ccc(O)cc1)NC(=O)[C@@H](NC(=O)[C@H](CCSC)NC(=O)[C@H](Cc1c[nH]cn1)NC(=O)[C@@H](NC(=O)[C@@H](N)CCCNC(=N)N)[C@@H](C)CC)C(C)C)C(=O)N[C@@H](CCC(=O)O)C(=O)N[C@@H](Cc1ccc(O)cc1)C(=O)O [Compound P140] (H-RIHMVYSKR[pS]GKPRGYAFIEY-OH) | 1 months | y = −0.099x + | 100 | 95.5 | 93.2 | 89.6 | y = −0.0612x + | 100 | 97.5 | 96.2 | 93.4 | 6 months | 100 | 98.7 | 98.5 | 97.4 | 29 | 83.3 | 144000 | 6.94 | Stability (%) ([1]; 50 μg/mL, day 60, 37° C.): 91.5%; Stability (%) ([1]; 50 μg/mL, day 80, 37° C.): 90.3%; 95% of stability (predicted) ([1]; 100 μg/mL, 37° C.): 2 months; Stability (%) ([1]; 100 μg/mL, day 60, 37° C.): 95.5%; Stability (%) ([1]; 100 μg/mL, day 80, 37° C.): 94.5%; Linear equation of stability (%) versus days: slope ([1]; 200 μg/mL, 37° C.): y = −0.0238x +; Stability (%) ([1]; 200 μg/mL, day 60, 37° C.): 97.9%; Stability (%) ([1]; 200 μg/mL, day 80, 37° C.): 97.6%; kd ([3]; BIAcore): 0.00312 s⁻¹; Req ([3]; peptide 1.56 μM): 15.3 RU; kobs ([3]; peptide 1.56 μM): 0.00382 s⁻¹; Req ([3]; peptide 3.12 μM): 25.8 RU; kobs ([3]; peptide 3.12 μM): 0.00452 s⁻¹; Req ([3]; peptide 6.25 μM): 39.5 RU; kobs ([3]; peptide 6.25 μM): 0.00593 s⁻¹; Req ([3]; peptide 12.5 μM): 53.6 RU; kobs ([3]; peptide 12.5 μM): 0.00874 s⁻¹; Req ([3]; peptide 25 μM): 65.2 RU; kobs ([3]; peptide 25 μM): 0.0144 s⁻¹ |
| CC[C@H](C)[C@H](NC(=O)[C@H](Cc1ccccc1)NC(=O)[C@H](C)NC(=O)[C@H](Cc1ccc(O)cc1)NC(=O)CNC(=O)[C@H](CCCNC(=N)N)NC(=O)[C@@H]1CCCN1C(=O)[C@H](CCCCN)NC(=O)CNC(=O)[C@H](COP(=O)(O)O)NC(=O)[C@H](CCCNC(=N)N)NC(=O)[C@H](CCCCN)NC(=O)[C@H](CO)NC(=O)[C@H](Cc1ccc(O)cc1)NC(=O)[C@@H](NC(=O)[C@H](CC[S+](C)[O-])NC(=O)[C@H](Cc1c[nH]cn1)NC(=O)[C@@H](NC(=O)[C@@H](N)CCCNC(=N)N)[C@@H](C)CC)C(C)C)C(=O)N[C@@H](CCC(=O)O)C(=O)N[C@@H](Cc1ccc(O)cc1)C(=O)O (some centres unmarked) [P140(MO), RIHM(O)VYSKRS(PO3H2)GKPRGYAFIEY] (H-RIH[Met(O)]VYSKR[pS]GKPRGYAFIEY-OH) | 2 years | y = −0.0064x + | 100 | 100 | 100 | 99.4 | y = −0.0064x + | 100 | 99.1 | 99.5 | 99.1 | ∞ | 100 | 100 | 100 | 100 | > 40 | 39 | 524000 | 1.91 | Stability over 100 days (in words) ([1]; all tested concentrations (50 to 200 μg/ml), 37° C.): stable; Proteinuria compared to untreated mice [4]: less important and appears lately; Peripheral hypercellularity [5]: able to decrease peripheral hypercellularity; Affinity for HSC70 compared with P140 (non-oxidized counterpart) ([3]; BIAcore): not statistically different; kd ([3]; BIAcore): 0.0022 s⁻¹; Req ([3]; peptide 1.56 μM): 17.6 RU; kobs ([3]; peptide 1.56 μM): 0.004 s⁻¹; Req ([3]; peptide 3.12 μM): 24.2 RU; kobs ([3]; peptide 3.12 μM): 0.0058 s⁻¹; Req ([3]; peptide 6.25 μM): 29.9 RU; kobs ([3]; peptide 6.25 μM): 0.0094 s⁻¹; Req ([3]; peptide 12.5 μM): 33.9 RU; kobs ([3]; peptide 12.5 μM): 0.0166 s⁻¹; Req ([3]; peptide 25 μM): 36.3 RU; kobs ([3]; peptide 25 μM): 0.031 s⁻¹ |

Source: patent publication US20150111835A1, “MODIFIED PEPTIDES AND THEIR USE FOR TREATING AUTOIMMUNE DISEASES” (CENTRE NATIONAL DE LA RECHERECHE SCIENTIFIQUE, priority 2011, published 2015)
